The target of the test is T1, human ferroportin (Homo sapiens, UniProt Q9NP59).
T1 construct: luciferase reporter (read with the Nano-Glo Luciferase Assay System); expressed in transfected cells; host or cells: CHO cells, stably transfected, expression induced with doxycycline
T1 sequence (Q9NP59 1-571): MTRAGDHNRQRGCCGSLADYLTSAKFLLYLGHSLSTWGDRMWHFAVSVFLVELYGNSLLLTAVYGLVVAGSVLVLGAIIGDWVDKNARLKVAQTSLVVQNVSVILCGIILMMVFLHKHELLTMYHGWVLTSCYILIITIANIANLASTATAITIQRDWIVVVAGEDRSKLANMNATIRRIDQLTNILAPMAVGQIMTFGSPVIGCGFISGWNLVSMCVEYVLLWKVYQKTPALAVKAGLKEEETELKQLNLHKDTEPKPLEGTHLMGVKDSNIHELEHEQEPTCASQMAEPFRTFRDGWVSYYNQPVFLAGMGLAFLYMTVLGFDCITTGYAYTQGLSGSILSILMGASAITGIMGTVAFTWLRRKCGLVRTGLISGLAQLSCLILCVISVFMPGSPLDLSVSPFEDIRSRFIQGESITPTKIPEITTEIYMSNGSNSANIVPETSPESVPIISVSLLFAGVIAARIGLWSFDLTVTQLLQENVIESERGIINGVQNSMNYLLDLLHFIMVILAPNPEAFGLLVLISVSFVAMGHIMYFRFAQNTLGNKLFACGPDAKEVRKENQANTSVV
Nature of the test: Biological in-vitro ferroportin internalization assay (luciferase reporter). The note with it: average pEC50; stably-transfected CHO cell line expressing human ferroportin tagged to a luciferase reporter; 6 h incubation with test compound. It counts as cell-based. The essentials: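 Stably transfected CHO cells expressing luciferase-tagged human ferroportin, plated 24 h with ferric ammonium citrate and induced with doxycycline for 24 h. Compounds incubated 6 h, then luciferase activity measured by Nano-Glo; average pEC50 reported.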
A general note: A reporter such as luciferase makes a cellular process visible.
Broadly, the pEC50 is the negative decadic logarithm of the EC50, by convention in mol/L. As for `Cc1cc(OCC(C)(C)O)cc(-c2nc3c(c(N(C)CC(=O)NC(C)(C)C)n2)CCC3)n1` [Compound 440, N-tert-butyl-2-({2-[4-(2-hydroxy-2-methylpropoxy)-6-methylpyridin-2-yl]-5H,6H,7H-cyclopenta[d]pyrimidin-4-yl}(methyl)amino)acetamide], the pEC50 is on record as 8.
The same measure for `CN(CC(=O)NC(C)(C)C)c1nc(-c2cc(O[C@@H]3CCOC3)ccn2)nc2c1CCC2` [Compound 318, N-tert-butyl-2-[methyl(2-{4-[(3R)-oxolan-3-yloxy]pyridin-2-yl}-5H,6H,7H-cyclopenta[d]pyrimidin-4-yl)amino]acetamide]: 7.9; for `CN(CC(=O)NC1(C(F)(F)F)CC1)c1nc(-c2cc(OCC(C)(C)N(C)C)ccn2)nc2c1CCC2` [Compound 423, 2-[(2-{4-[2-(dimethylamino)-2-methylpropoxy]pyridin-2-yl}-5H,6H,7H-cyclopenta[d]pyrimidin-4-yl)(methyl)amino]-N-[1-(trifluoromethyl)cyclopropyl]acetamide]: 7.7.
As to `CCC(O)(CC)COc1ccnc(-c2nc3c(c(N(C)CC(=O)N[C@@H]4CCC[C@@H]4O)n2)CCC3)c1` [Compound 469, 2-({2-[4-(2-ethyl-2-hydroxybutoxy)pyridin-2-yl]-5H,6H,7H-cyclopenta[d]pyrimidin-4-yl}(methyl)amino)-N-[(1R,2S)-2-hydroxycyclopentyl]acetamidede], the negative logarithm of the EC50 (pEC50) is given as 8.3.
Then `CC(C)NC(=O)CN(C)c1nc(-c2cc(OCC3(O)CC3)ccn2)nc2c1CCC2` [Compound 431, 2-[(2-{4-[(1-hydroxycyclopropyl)methoxy]pyridin-2-yl}-5H,6H,7H-cyclopenta[d]pyrimidin-4-yl)(methyl)amino]-N-(propan-2-yl)acetamide], with 7.4.
The same measure for `CN(CC(=O)Nc1cccc(F)c1)c1nc(-c2cc(OCC3(O)CC3)ccn2)nc2c1CCC2` [Compound 307, N-(3-fluorophenyl)-2-[(2-{4-[(1-hydroxycyclopropyl)methoxy]pyri-din-2-yl}-5H,6H,7H-cyclopenta[d]pyrimidin-4-yl)(methyl)amino]acetamide]: 7.4.
The same measure for `CC(C)[C@@H](O)COc1ccnc(-c2nc3c(c(N(C)CC(=O)NC(C)(C)C)n2)CCC3)c1` [Compound 387, N-tert-butyl-2-[(2-{4-[(2R)-2-hydroxy-3-methylbutoxy]pyridin-2-yl}-5H,6H,7H-cyclopenta[d]pyrimidin-4-yl)(methyl)amino]acetamide]: 8.2; for `CN(CC(=O)Nc1cccc(F)c1)c1nc(-c2cc(OCC(C)(C)O)ccn2)nc2c1CCC2` [Compound 280, N-(3-fluorophenyl)-2-({2-[4-(2-hydroxy-2-methylpropoxy)pyridin-2-yl]-5H,6H,7H-cyclopenta[d]pyrimidin-4-yl}(methyl)amino)acetamide]: 8.3.
In turn, `CN(CC(=O)NC(C)(C)C)c1nc(-c2cc(F)ccn2)nc2c1CCC2` [Compound 58, N-tert-butyl-2-{[2-(4-fluoropyridin-2-yl)-5H,6H,7H-cyclopenta[d]pyrimidin-4-yl](methyl)amino}acetamide] displayed a pEC50 of 6.7.
Then `C[C@@H](O)COc1ccnc(-c2nc3c(c(N(C)CC(=O)NC(C)(C)C)n2)CCC3)c1` [Compound 366, N-tert-butyl-2-[(2-{4-[(2R)-2-hydroxypropoxy]pyridin-2-yl}-5H,6H,7H-cyclopenta[d]pyrimidin-4-yl)(methyl)amino]acetamide], with 7.7.
Then `CN(C)CCOc1ccnc(-c2nc3c(c(N(C)CC(=O)NC(C)(C)C)n2)C(O)CC3)c1` (stereo not drawn) [Compound 493, N-tert-butyl-2-[(2-{4-[2-(dimethylamino)ethoxy]pyridin-2-yl}-5-hydroxy-5H,6H,7H-cyclopenta[d]pyrimidin-4-yl)(methyl)amino]acetamide], with 6.9; and `CC(C)NC(=O)CN(C)c1nc(-c2cc(OCCN(C)C)ccn2)nc2c1CC(C)(C)C2` [Compound 455, 2-[(2-{4-[2-(dimethylamino)ethoxy]pyridin-2-yl}-6,6-dimethyl-5H,6H,7H-cyclopenta[d]pyrimidin-4-yl)(methyl)amino]-N-(propan-2-yl)acetamide], with 7.7.
The same measure for `COc1ccnc(-c2nc3c(c(N(C)[C@H](C)C(=O)NC(C)(C)C)n2)CCC3)c1` [Compound 101, (2R)—N-tert-butyl-2-{[2-(4-methoxypyridin-2-yl)-5H,6H,7H-cyclopenta[d]pyrimidin-4-yl](methyl)amino}propanamide]: 8.2; for `CN(CC(=O)NC(C)(C)C)c1nc(-c2cc(OCCN3CCCC3)ccn2)nc2c1CCC2` [Compound 401, N-tert-butyl-2-[methyl(2-{4-[2-(pyrrolidin-1-yl)ethoxy]pyridin-2-yl}-5H,6H,7H-cyclopenta[d]pyrimidin-4-yl)amino]acetamide]: 8.3; for `CC1(C)CC[C@H](Nc2nc(-c3ccccn3)nc3c2CCC3)C(=O)N1` [Compound 56, (3S)-6,6-dimethyl-3-{[2-(pyridin-2-yl)-5H,6H,7H-cyclopenta[d]pyrimidin-4-yl]amino}piperidin-2-one]: 6.7.
In turn, `C[C@@H](O)COc1ccnc(-c2nc3c(c(N(C)CC(=O)NC4(C)CCC4)n2)CCC3)c1` [Compound 377, 2-[(2-{4-[(2R)-2-hydroxypropoxy]pyridin-2-yl}-5H,6H,7H-cyclopenta[d]pyrimidin-4-yl)(methyl)amino]-N-(1-methylcyclobutyl)acetamide] had a pEC50 of 7.8.
For `CSCCOc1ccnc(-c2nc3c(c(N(C)CC(=O)NC(C)(C)C)n2)CCC3)c1` [Compound 506, N-tert-butyl-2-[methyl(2-{4-[2-(methylsulfanyl)ethoxy]pyridin-2-yl}-5H,6H,7H-cyclopenta[d]pyrimidin-4-yl)amino]acetamide], the pEC50 was found to be 8.0.
The same measure for `CN(CC(=O)NC(C)(C)C)c1nc(-c2cc3c(cn2)OCCO3)nc2c1CCC2` [Compound 122, N-tert-butyl-2-[(2-{2H,3H-[1,4]dioxino[2,3-c]pyridin-7-yl}-5H,6H,7H-cyclopenta[d]pyrimidin-4-yl)(methyl)amino]acetamide]: 7.8.
`CN(CC(=O)NC(C)(C)C)c1nc(-c2cc(OC(C)(C)CO)ccn2)nc2c1CCC2` [Compound 425, N-tert-butyl-2-[(2-{4-[(1-hydroxy-2-methylpropan-2-yl)oxy]pyridin-2-yl}-5H,6H,7H-cyclopenta[d]pyrimidin-4-yl)(methyl)amino]acetamide] showed a pEC50 of 8.3.
With `CN(c1nc(-c2ccccn2)nc2c1CCC2)[C@H]1CCN(c2ccccc2)C1=O` [Compound 131, (3S)-3-{methyl[2-(pyridin-2-yl)-5H,6H,7H-cyclopenta[d]pyrimidin-4-yl]amino}-1-phenylpyrrolidin-2-one], the pEC50 was found to be 7.1.
The same measure for `CCC(O)(CC)COc1ccnc(-c2nc3c(c(N(C)CC(=O)NC(C)(C)C)n2)CCC3)c1` [Compound 395, N-tert-butyl-2-({2-[4-(2-ethyl-2-hydroxybutoxy)pyridin-2-yl]-5H,6H,7H-cyclopenta[d]pyrimidin-4-yl}(methyl)amino)acetamide]: 8.4; for `COc1ccc(NC(=O)CN(C)c2nc(-c3cc(OCCO)ccn3)nc3c2CCC3)nn1` [Compound 285, 2-({2-[4-(2-hydroxyethoxy)pyridin-2-yl]-5H,6H,7H-cyclopenta[d]pyrimidin-4-yl}(methyl)amino)-N-(6-methoxypyridazin-3-yl)acetamide]: 7.8; for `CN(CC(=O)NC(C)(C)C)c1nc(-c2cc(C3CC3)ccn2)nc2c1CCC2` [Compound 57, N-tert-butyl-2-{[2-(4-cyclopropylpyridin-2-yl)-5H,6H,7H-cyclopenta[d]pyrimidin-4-yl](methyl)amino}acetamide]: 7.5.
Then `CN(CC(=O)Nc1ccc(F)nc1)c1nc(-c2ccccn2)nc2c1CCC2` [Compound 127, N-(6-fluoropyridin-3-yl)-2-{methyl[2-(pyridin-2-yl)-5H,6H,7H-cyclopenta[d]pyrimidin-4-yl]amino}acetamide], with 7.1.
The same measure for `COc1ccc(NC(=O)CN(C)c2nc(-c3cc(OCCO)ccn3)nc3c2CCC3)cc1` [Compound 269, 2-({2-[4-(2-hydroxyethoxy)pyridin-2-yl]-5H,6H,7H-cyclopenta[d]pyrimidin-4-yl}(methyl)amino)-N-(4-methoxyphenyl)acetamide]: 8.4; for `COc1ccnc(-c2nc3c(c(N(C)CC(=O)NC4(C)CCCC4)n2)CCC3)c1` [Compound 155, 2-{[2-(4-methoxypyridin-2-yl)-5H,6H,7H-cyclopenta[d]pyrimidin-4-yl](methyl)amino}-N-(1-methylcyclopentyl)acetamide]: 7.5.
Take `CC(=O)NCCOc1ccnc(-c2nc3c(c(N(C)CC(=O)NC(C)(C)C)n2)CCC3)c1` [Compound 369, N-tert-butyl-2-({2-[4-(2-acetamidoethoxy)pyridin-2-yl]-5H,6H,7H-cyclopenta[d]pyrimidin-4-yl}(methyl)amino)acetamide]: the pEC50 turned out to be 7.7.
